{"source": "patent US10829833B2", "about": "“Biological processing of scrap metal, household waste and/or industrial waste for the isolation of heavy metals” (B.R.A.I.N. Biotechnology Research and Information Network AG, priority 2015, dated 2020)", "assay_in_all_cases": "Microbial growth on agar plates with different concentrations of AgNO3 or HAuCl4", "assay_type_in_all_cases": "cell-based", "parameters_in_all_cases": "key: x = growth; (x) = weak growth", "details_in_all_cases": "agar plate", "key": {"Bacillus sphaericus": {"tested_on": "Bacillus sphaericus", "description": "(§1) To investigate the tolerated concentration of silver and gold, the microorganisms were propagated in liquid medium and streaked on agar plates with different concentrations of AgNO3 or HAuCl4, respectively."}, "Escherichia coli": {"tested_on": "Escherichia coli", "description": "as §1"}, "[1]": {"tested_on": "Cupriavidus metallidurans", "description": "as §1"}, "Xanthomonas campestris": {"tested_on": "Xanthomonas campestris", "description": "as §1"}}}
{"molecule": "O=[N+]([O-])[O-].[Ag+]", "note": "[AgNO3]", "values": [{"measurement": "Microbial growth in dependence on AgNO3 concentration", "setting": "Bacillus sphaericus; AgNO3 2 μM", "value": "x"}, {"measurement": "Microbial growth in dependence on AgNO3 concentration", "setting": "Bacillus sphaericus; AgNO3 10 μM", "value": "x"}, {"measurement": "Microbial growth in dependence on AgNO3 concentration", "setting": "Bacillus sphaericus; AgNO3 20 μM", "value": "x"}, {"measurement": "Microbial growth in dependence on AgNO3 concentration", "setting": "Bacillus sphaericus; AgNO3 50 μM", "value": "x"}, {"measurement": "Microbial growth in dependence on AgNO3 concentration", "setting": "Bacillus sphaericus; AgNO3 100 μM", "value": "x"}, {"measurement": "Microbial growth in dependence on AgNO3 concentration", "setting": "Bacillus sphaericus; AgNO3 150 μM", "value": "x"}, {"measurement": "Microbial growth in dependence on AgNO3 concentration", "setting": "Escherichia coli; AgNO3 2 μM", "value": "x"}, {"measurement": "Microbial growth in dependence on AgNO3 concentration", "setting": "Escherichia coli; AgNO3 10 μM", "value": "x"}, {"measurement": "Microbial growth in dependence on AgNO3 concentration", "setting": "Escherichia coli; AgNO3 20 μM", "value": "x"}, {"measurement": "Microbial growth in dependence on AgNO3 concentration", "setting": "Escherichia coli; AgNO3 50 μM", "value": "x"}, {"measurement": "Microbial growth in dependence on AgNO3 concentration", "setting": "Escherichia coli; AgNO3 100 μM", "value": "x"}, {"measurement": "Microbial growth in dependence on AgNO3 concentration", "setting": "[1]; AgNO3 2 μM", "value": "x"}, {"measurement": "Microbial growth in dependence on AgNO3 concentration", "setting": "[1]; AgNO3 10 μM", "value": "x"}, {"measurement": "Microbial growth in dependence on AgNO3 concentration", "setting": "[1]; AgNO3 20 μM", "value": "x"}, {"measurement": "Microbial growth in dependence on AgNO3 concentration", "setting": "[1]; AgNO3 50 μM", "value": "x"}, {"measurement": "Microbial growth in dependence on AgNO3 concentration", "setting": "[1]; AgNO3 100 μM", "value": "x"}, {"measurement": "Microbial growth in dependence on AgNO3 concentration", "setting": "[1]; AgNO3 150 μM", "value": "x"}, {"measurement": "Microbial growth in dependence on AgNO3 concentration", "setting": "[1]; AgNO3 200 μM", "value": "(x)"}, {"measurement": "Microbial growth in dependence on AgNO3 concentration", "setting": "Xanthomonas campestris; AgNO3 2 μM", "value": "x"}, {"measurement": "Microbial growth in dependence on AgNO3 concentration", "setting": "Xanthomonas campestris; AgNO3 10 μM", "value": "x"}, {"measurement": "Microbial growth in dependence on AgNO3 concentration", "setting": "Xanthomonas campestris; AgNO3 20 μM", "value": "x"}, {"measurement": "Microbial growth in dependence on AgNO3 concentration", "setting": "Xanthomonas campestris; AgNO3 50 μM", "value": "x"}, {"measurement": "Microbial growth in dependence on AgNO3 concentration", "setting": "Xanthomonas campestris; AgNO3 100 μM", "value": "x"}]}
{"molecule": "[Au+3].[Cl-].[Cl-].[Cl-].[Cl-].[H+]", "note": "[HAuCl4]", "values": [{"measurement": "Microbial growth in dependence on HAuCl4 concentration", "setting": "Bacillus sphaericus; HAuCl4 2 μM", "value": "x"}, {"measurement": "Microbial growth in dependence on HAuCl4 concentration", "setting": "Bacillus sphaericus; HAuCl4 20 μM", "value": "x"}, {"measurement": "Microbial growth in dependence on HAuCl4 concentration", "setting": "Bacillus sphaericus; HAuCl4 100 μM", "value": "x"}, {"measurement": "Microbial growth in dependence on HAuCl4 concentration", "setting": "Bacillus sphaericus; HAuCl4 200 μM", "value": "x"}, {"measurement": "Microbial growth in dependence on HAuCl4 concentration", "setting": "Escherichia coli; HAuCl4 2 μM", "value": "x"}, {"measurement": "Microbial growth in dependence on HAuCl4 concentration", "setting": "Escherichia coli; HAuCl4 20 μM", "value": "x"}, {"measurement": "Microbial growth in dependence on HAuCl4 concentration", "setting": "Escherichia coli; HAuCl4 100 μM", "value": "x"}, {"measurement": "Microbial growth in dependence on HAuCl4 concentration", "setting": "Escherichia coli; HAuCl4 200 μM", "value": "x"}, {"measurement": "Microbial growth in dependence on HAuCl4 concentration", "setting": "Escherichia coli; HAuCl4 300 μM", "value": "x"}, {"measurement": "Microbial growth in dependence on HAuCl4 concentration", "setting": "[1]; HAuCl4 2 μM", "value": "x"}, {"measurement": "Microbial growth in dependence on HAuCl4 concentration", "setting": "[1]; HAuCl4 20 μM", "value": "x"}, {"measurement": "Microbial growth in dependence on HAuCl4 concentration", "setting": "[1]; HAuCl4 100 μM", "value": "x"}, {"measurement": "Microbial growth in dependence on HAuCl4 concentration", "setting": "[1]; HAuCl4 200 μM", "value": "x"}, {"measurement": "Microbial growth in dependence on HAuCl4 concentration", "setting": "[1]; HAuCl4 300 μM", "value": "x"}, {"measurement": "Microbial growth in dependence on HAuCl4 concentration", "setting": "[1]; HAuCl4 400 μM", "value": "x"}, {"measurement": "Microbial growth in dependence on HAuCl4 concentration", "setting": "[1]; HAuCl4 500 μM", "value": "x"}, {"measurement": "Microbial growth in dependence on HAuCl4 concentration", "setting": "Xanthomonas campestris; HAuCl4 2 μM", "value": "x"}, {"measurement": "Microbial growth in dependence on HAuCl4 concentration", "setting": "Xanthomonas campestris; HAuCl4 20 μM", "value": "x"}, {"measurement": "Microbial growth in dependence on HAuCl4 concentration", "setting": "Xanthomonas campestris; HAuCl4 100 μM", "value": "x"}, {"measurement": "Microbial growth in dependence on HAuCl4 concentration", "setting": "Xanthomonas campestris; HAuCl4 200 μM", "value": "x"}, {"measurement": "Microbial growth in dependence on HAuCl4 concentration", "setting": "Xanthomonas campestris; HAuCl4 300 μM", "value": "x"}]}
